Reference: PMC8560754, “Bridging the gap between in silico and in vivo by modeling opioid disposition in a kidney proximal tubule microphysiological system” (Scientific Reports, 2021)
Where two headings read alike, the source gives them in different places. Marks after values point to notes of the source that are not given here.

Columns and labels:
[1] = Transport of morphine and M6G in the vascularized proximal tubule MPS (VPT-MPS); format: in vitro ADME, human; conditions: human, with probenecid (1 mM) and tetraethylammonium (1 mM), read-out: Permeability
Method: (§1) The inner chamber of dual-channel MPS devices (Duplo, Fig. 1) (https://www.nortisbio.com/) was dried, filled with 6 mg/mL of rat tail collagen I, and left overnight to allow the collagen I matrix to solidify. The mandrels of the MPS platforms were then removed, leaving two hollow channels through the collagen I matrix. The PTEC channel was coated with a 5 µg/mL mouse collagen IV to facilitate human PTECs adhesion. Cultures of primary kidney epithelial cells were subjected to trypsin digestion to obtain single cell suspensions. The cells were counted and resuspended with PTECs culture media at a concentration of 20 × 10^6 cells/mL and 2–2.5 µL were injected into the collagen IV-coated channel. Cells were allowed to attach for 3 h before starting perfusion at a rate of 1.0 µL/min. A 1.0 µL/min perfusion of DMEM/F12 media containing ITS-A, 50 nM hydrocortisone, penicillin–streptomycin and amphotericin B was then initiated. Following 6 days under these culture conditions, the epithelial tubule was established and perfusion to the channel was stopped for a brief period. The parallel vacant channel was equilibrated with EGM-2 media containing 2% FBS for 2 h at 1.0 µL/min. Then, HUVECs (passages 5–10) were seeded into the equilibrated channel and allowed to attach for 30 min to establish an endothelial vessel. Flow to both channels was resumed at 1.0 µL/min with both channels receiving their respective culture medium. The day after seeding HUVEC, VPT-MPS were used for transport experiments. Prior to the beginning of experiments, a visual inspection under light microscope was performed to confirm complete (100%) coverage of both HUVEC vessel and PTEC tubule, respectively.
(§2) The flow rate of flow through both channels was set at 1 µL/min. Effluents from the vessel and the tubule were collected every 2 h, and drug concentrations in the samples were determined LC/MS/MS. Transport experiments were conducted across 3 different donors. Effluent measurements were extended out to 24 h in order to reach steady-state levels in solute output.

[2] = system: human primary proximal tubular epithelial cells (PTEC) tubule in VPT-MPS; assay: as above; format: in vitro ADME; conditions: for CLint,sec: VPT-MPS derived intrinsic secretion clearance; for CLsecretion, each proximal subsegment S1, S2, and S3: clearance value of each proximal subsegment; for CLsecretion, each proximal subsegment S1, S2, and S3 / CLsecretion: scaled up from VPT-MPS; for CLsecretion: unbound intrinsic kidney active secretion clearance at proximal tubule, total; for CLapp, passive diffusion / CLapp, active secretion: one representative donor; for CLapp, passive diffusion / Concentration in endothelial cell / Efflux rate into lumen / CLapp, active secretion: mean ± SD; for Concentration in endothelial cell / Efflux rate into lumen: representative donor of Fig 2
Method: as §1, §2

[3] = Bidirectional transport across PTECs monolayers in conventional 2D Transwell; format: in vitro ADME, human; conditions: human; for Papp at 1.5 h, 1 µM: PTECs permeability study data used for CLr prediction; for Papp A→B at 1.5 h, 1 µM / Papp B→A at 1.5 h, 1 µM: Inhibitor (-), 1.5 hour incubation; for Papp A→B at 1.5 h, 1 µM: read-out: Papp Apical to Basal; for Papp B→A at 1.5 h, 1 µM: read-out: Papp Basal to Apical
Method: (§3) PTECs were seeded on polyester membrane HTS 24-well Transwell^TM inserts at 0.5-1 ×10^5 cells/well and cultured for 7-10 days until confluency. Transepithelial electrical resistance
(§4) (TEER) across PTECs monolayers was monitored by an EVOM meter from World Precision Instruments (Berlin, Germany). TEER values were normalized to culture surface areas of Transwell^TM inserts. Wells with TEER reading from 25-150 ohm∙cm^2 were used for experiments.
(§5) Samples were collected from basal (for apical to basal transport) or apical (for basal to apical transport) insert and analyzed by LC/MS/MS. Concentrations were used to determine apparent permeability (Papp) by using the following equation: […]

PTECs monolayers = assay: as above; format: in vitro ADME, human; conditions: for CLint, secretion: considered as zero since no active secretion was observed in 2D Transwell; for Papp A→B / Papp B→A: Inhibitor (-), 1.5 hour incubation; for Papp A→B: read-out: Papp Apical to Basal; for Papp B→A: read-out: Papp Basal to Apical
Method: as §3, §4, §5

[4] = Bidirectional transport across MDCK monolayers in conventional 2D Transwell; format: in vitro ADME; conditions: dog, Inhibitor (-), 1.5 hour incubation
Text: as §5

[5] = human, cited from earlier work
[6] = ref www.drugbank.ca; cited from earlier work
[7] = blood-to-plasma ratio; cited from earlier work
[8] = Morphine-M6G parent-metabolite full body PBPK model; set-up: species or system human; conditions: hepatic clearance; systemic clearance minus renal clearance
[9] = fraction of morphine metabolism to M6G; cited from earlier work

Work on `CN1CC[C@]23c4c5ccc(O)c4O[C@H]2[C@@H](O[C@@H]2O[C@H](C(=O)O)[C@@H](O)[C@H](O)[C@H]2O)C=C[C@H]3[C@H]1C5` [M6G, morphine-6-glucuronide] yielded a Papp at 24 h, 1 µM ([1]; Donor1, VPT-MPS) of 25.9 ± 28.5 ×10⁻⁶ cm/s, a Papp at 24 h, 1 µM ([1]; Donor2, VPT-MPS) of 9.74 ± 11.1 ×10⁻⁶ cm/s and a Papp at 24 h, 1 µM ([1]; Donor3, VPT-MPS) of 41.8 ×10⁻⁶ cm/s. For the same compound, the Papp at 24 h, 1 µM ([1]; PBPK model parameter, experimentally determined using VPT-MPS) was 23.8 ×10⁻⁶ cm/s, the “decrease in intrinsic clearance by transporter inhibitors” value ([2]; 1 mM probenecid and 1 mM tetraethylammonium, average of three donors) was 63.6% and the “CLint,sec” value ([2]; Donor1) was 15.6 ± 10.5 µL/h/MPS. For the same compound, the “CLint,sec” value ([2]; Donor2) was 1.29 ± 1.09 µL/h/MPS, the “CLint,sec” value ([2]; Donor3) was 22.9 µL/h/MPS and the “CLsecretion, each proximal subsegment S1, S2, and S3” value [2] was 14.5 L/h. For the same compound, the “CLint, active secretion, range between PTECs donors” value ([2]; three donors) was 1.29–22.9 µL/h/VPT-MPS, the CLsecretion [2] was 43.5 L/h and the “CLapp, passive diffusion” value ([2]; with inhibitor) was 1.92±2.02 μL/hr/MPS. The “Concentration in endothelial cell” value ([2]; with inhibitor) was 639 ± 34 nM, the “Efflux rate into lumen” value ([2]; with inhibitor) was 0.0191 ± 0.0192 pmol/min/MPS and the “CLapp, active secretion” value ([2]; without inhibitor) was 7.90±3.86 μL/hr/MPS. For the same compound, the “Concentration in endothelial cell” value ([2]; without inhibitor) was 640 ± 58 nM, the “Efflux rate into lumen” value ([2]; without inhibitor) was 0.110 ± 0.043 pmol/min/MPS and the Papp at 1.5 h, 1 µM ([3]; Donor3) was 40.1 ×10⁻⁶ cm/s. It also gave a Papp at 1.5 h, 1 µM ([3]; Donor5) of 28.6 ×10⁻⁶ cm/s, a Papp at 1.5 h, 1 µM ([3]; Donor6) of 40.1 ×10⁻⁶ cm/s and a Papp A→B at 1.5 h, 1 µM ([3]; Donor2) of 58 ×10⁻⁶ cm/s. It also gave a Papp B→A at 1.5 h, 1 µM ([3]; Donor2) of 54.6 ×10⁻⁶ cm/s, a Papp A→B at 1.5 h, 1 µM ([3]; Donor3) of 40.1 ± 7.5 ×10⁻⁶ cm/s and a Papp B→A at 1.5 h, 1 µM ([3]; Donor3) of 24.9 ± 14.2 ×10⁻⁶ cm/s. For the same compound, the Papp A→B at 1.5 h, 1 µM ([3]; Donor4) was 22.5 ×10⁻⁶ cm/s, the Papp B→A at 1.5 h, 1 µM ([3]; Donor4) was 12.2 ×10⁻⁶ cm/s and the Papp A→B at 1.5 h, 1 µM ([3]; Donor5) was 28.6 ± 1.6 ×10⁻⁶ cm/s. For the same compound, the Papp B→A at 1.5 h, 1 µM ([3]; Donor5) was 28.6 ± 2.1 ×10⁻⁶ cm/s, the Papp A→B at 1.5 h, 1 µM ([3]; Donor6) was 55.6 ×10⁻⁶ cm/s and the Papp B→A at 1.5 h, 1 µM ([3]; Donor6) was 42.2 ×10⁻⁶ cm/s. The “CLint, secretion” value (PTECs monolayers; Donor2) was 0 µL/h, the “CLint, secretion” value (PTECs monolayers; Donor3) was 0 µL/h and the “CLint, secretion” value (PTECs monolayers; Donor5) was 0 µL/h. For the same compound, the “CLint, secretion” value (PTECs monolayers; Donor6) was 0 µL/h, the Papp A→B at 1.5 h, 1 µM ([4]; read-out: Papp Apical to Basal) was 3.86 ×10⁻⁶ cm/s and the Papp B→A at 1.5 h, 1 µM ([4]; read-out: Papp Basal to Apical) was 1.53 ± 0.17 ×10⁻⁶ cm/s. For the same compound, the “CLr,observed” value [5] was 9.20–14.3[20],[21] L/h, the “CLr,observed” value ([5]; ref 5,6 (supplement)) was 9.20-14.3 ^5,6 L/hr and the “pKa (base)” value [6] was 9.12^b. The B/P [7] was 0.55^e.

For `CN1CC[C@]23c4c5ccc(O)c4O[C@H]2[C@@H](O)C=C[C@H]3[C@H]1C5` [Morphine, reference compound], the “CLsecretion, each proximal subsegment S1, S2, and S3” value [2] was 13.1 L/h, the CLsecretion [2] was 39.3 L/h and the “CLapp, passive diffusion” value ([2]; with inhibitor) was 2.09±1.58 μL/hr/MPS. The “CLapp, active secretion” value ([2]; without inhibitor) was 6.98±3.94 μL/hr/MPS, the CLh [8] was 75.3^i L/h and the B/P [7] was 1.08^e. For the same compound, the “fm,M6G” value [9] was 0.1^k.

With `Nc1ccc(C(=O)NCC(=O)O)cc1` [[^3H] PAH, para-aminohippuric acid, reference compound] the “active transport in 2D Transwell” value (PTECs monolayers; 2D culture, probe substrate of OAT1 and OAT3) was “negligible active transport”, the Papp A→B (PTECs monolayers; Donor2) was 72.4 ×10⁻⁶ cm/s and the Papp B→A (PTECs monolayers; Donor2) was 69.6 ×10⁻⁶ cm/s. The Papp A→B (PTECs monolayers; Donor3) was 31.7 ×10⁻⁶ cm/s, the Papp B→A (PTECs monolayers; Donor3) was 23 ×10⁻⁶ cm/s and the Papp A→B (PTECs monolayers; Donor6) was 71.7 ×10⁻⁶ cm/s. The Papp B→A (PTECs monolayers; Donor6) was 67.3 ×10⁻⁶ cm/s.
